How the values were obtained:
Assay in all cases: lentiviral shRNA knockdown of CD320 and LRP2, cell growth observation
Format in all cases: cell-based
Design in all cases: key: +++: cells unaffected compared to shSCR (control); ++: cells modestly affected compared to shSCR (control); +: cells significantly affected compared to shSCR (control); 0: vast majority of cells killed compared to shSCR (control)
[1] = test system: GM05659 fibroblasts; settings: GM05659, normal cells
Excerpt: (§1) Mechanistic investigations into the selectivity of porphyrin uptake by cancer cells led to several nonobvious compounds and methods of using the compound(s). It was discovered that the knockdown of the expression of either CD320 gene or LRP2 gene or the simultaneous knockdown of the expression of CD320 gene and LRP2 gene caused cell death or inhibition of cell growth in a panel of lung cancer cell lines, compared to normal fibroblasts. The experimental outline is illustrated in FIG. 1. In these experiments, cells were plated on day 0. The next day (day 1), virus particles encoding short hairpin RNAs (shRNAs) directed to the CD320 gene and the LRP2 gene or an irrelevant shRNA control were added to the cell culture together with protamine sulfate, a reagent that facilitates cell entry of the virus particles.
(§2) FIG. 1 illustrates an experimental design for knocking down CD320 and LRP2 in a cell. Cells were plated on day 0. The next day (day 1), virus particles encoding short hairpin RNAs (shRNAs) directed at the CD320 and LRP2 mRNA or a non-targeting shRNA control were added to the cell culture together with protamine sulfate, a reagent that facilitates cell entry of the virus particles. […] Each shRNA coding sequence was also combined with a unique drug resistance gene, which would allow for selecting those cells that had taken up the shRNA; cells that had not taken up the shRNA would not survive. On day 2, drug selection was started. On day 3, the cells were harvested and plated in a new dish. Only the cells with a drug resistance gene, i.e., those cells that had taken up shRNA virus particles would survive this re-plating procedure. From day 4 on, each culture was closely observed for cell growth. Cells infected with the non-targeting negative control shRNA continued growing—data not shown.
FIGS. 2 A-C illustrates sensitivity of cancer cell lines to knockdown of CD320 and LRP2. […] The fields of cells in FIG. 2A were counted and quantified and illustrated in FIG. 2B. […]

[2] = test system: H157; settings: H157, lung cells
Excerpt: as §1, §2
(§3) The Each vector that carried a shRNA coding sequence also contained a unique drug resistance gene which would allow for selecting those cells that had taken up the shRNA as those cells that had not taken up the shRNA having the unique drug resistance gene would not survive. On day 2, drug selection was started. On day 3, the cells were harvested and plated in a new dish. Only the cells with a drug resistance gene, i.e., those cells that had taken up shRNA virus particles would survive this re-plating procedure. From day 4 on, each culture was closely observed for cell growth. The cells that were infected with the irrelevant control shRNA kept on growing as expected (since the shRNA was essentially a non-functional shRNA)—data not shown.
(§4) Additional cancer cell lines were also treated with the compounds described herein to determine whether cancer cell lines were more susceptible to growth inhibition and toxicity as compared to non-cancer cells of the same origin. Cell lines from skin, prostate, and brain cancers were screened similarly to the experimental outline in FIG. 1. Table 3 summarizes the effects of simultaneous knockdown of CD320 and LRP2 in cancer and normal cells.

[3] = test system: GM00701; settings: GM00701, normal cells
Excerpt: as §1, §2, §3, §4

[4] = test system: H358; settings: H358, lung cells
Excerpt: as §1, §2, §3, §4

[5] = test system: A172; settings: A172, glioblastoma
Excerpt: as §1, §2, §3, §4

[6] = test system: U343; settings: U343, glioblastoma
Excerpt: as §1, §2, §3, §4

[7] = test system: H1993; settings: H1993, lung cells
Excerpt: as §1, §2, §3, §4

[8] = test system: LncAP; settings: prostate cells
Excerpt: as §1, §2, §3, §4

[9] = test system: U251MG; settings: glioblastoma
Excerpt: as §1, §2, §3, §4

[10] = test system: T98G; settings: glioblastoma
Excerpt: as §1, §2, §3, §4

[11] = test system: HCC15; settings: HCC15, lung cells
Excerpt: as §1, §2, §3, §4

[12] = test system: DU-145; settings: DU-145, prostate cells
Excerpt: as §1, §2, §3, §4

[13] = test system: MDA-MB-4353; settings: MDA-MB-4353, melanoma cells
Excerpt: as §1, §2, §3, §4

[14] = test system: PC3; settings: PC3, prostate cells
Excerpt: as §1, §2, §3, §4

Substance: shCD320: lentiviral shRNA targeting CD320 (NM_016579.3), location 1006-1026; SEQ ID NO. 943/944 (sense CCCTCAGAGACCTGAGCTCTT; antisense AAGAGCTCAGGTCTCTGAGGG) [lentiviral shRNA targeting CD320 (NM_016579.3), location 1006-1026; 943/944]
- cells affected compared to shSCR (control) [1]: +++
- cells affected compared to shSCR (control) [2]: +
- cells affected compared to shSCR (control) [3]: ++
- cells affected compared to shSCR (control) [4]: ++
- cells affected compared to shSCR (control) [5]: +
- cells affected compared to shSCR (control) [6]: +++
- cells affected compared to shSCR (control) [7]: ++
- cells affected compared to shSCR (control) [8]: ++
- cells affected compared to shSCR (control) [9]: +
- cells affected compared to shSCR (control) [10]: +++
- cells affected compared to shSCR (control) [11]: +
- cells affected compared to shSCR (control) [12]: ++
- cells affected compared to shSCR (control) [13]: ++
- cells affected compared to shSCR (control) [14]: +++

Substance: shLRP2: lentiviral shRNA targeting LRP2 (NM_004525.2), location 2800-2820; SEQ ID NO. 945/946 (sense CCTGTAATAAACACTACTCTT; antisense AAGAGTAGTGTTTATTACAGG) [lentiviral shRNA targeting LRP2 (NM_004525.2), location 2800-2820; 945/946]
- cells affected compared to shSCR (control) [1]: +++
- cells affected compared to shSCR (control) [2]: ++
- cells affected compared to shSCR (control) [3]: +++
- cells affected compared to shSCR (control) [4]: ++
- cells affected compared to shSCR (control) [5]: +
- cells affected compared to shSCR (control) [6]: ++
- cells affected compared to shSCR (control) [7]: ++
- cells affected compared to shSCR (control) [8]: ++
- cells affected compared to shSCR (control) [9]: ++
- cells affected compared to shSCR (control) [10]: ++
- cells affected compared to shSCR (control) [11]: +
- cells affected compared to shSCR (control) [12]: +
- cells affected compared to shSCR (control) [13]: +
- cells affected compared to shSCR (control) [14]: ++

Substance: shSCR: non-targeting control shRNA in lentiviral vector; SEQ ID NO. 941/942 [reference compound]
- cells affected compared to shSCR (control) [1]: +++
- cells affected compared to shSCR (control) [2]: +++
- cells affected compared to shSCR (control) [3]: +++
- cells affected compared to shSCR (control) [4]: +++
- cells affected compared to shSCR (control) [5]: +++
- cells affected compared to shSCR (control) [6]: +++
- cells affected compared to shSCR (control) [7]: +++
- cells affected compared to shSCR (control) [8]: +++
- cells affected compared to shSCR (control) [9]: +++
- cells affected compared to shSCR (control) [10]: +++
- cells affected compared to shSCR (control) [11]: +++
- cells affected compared to shSCR (control) [12]: +++
- cells affected compared to shSCR (control) [13]: +++
- cells affected compared to shSCR (control) [14]: +++

From patent US12305171B2, “Compositions and methods for treating cancer” (bioAffinity Technologies, Inc., priority 2018, dated 2025)
